{
  "source": "PubChem BioAssay (NCI)",
  "test_in_all_cases": "NCI-60 cell line screen, 48 h",
  "key": {"NCI-H460 lung": {"test_system": "NCI-H460 lung"}, "NCI-H23 lung": {"test_system": "NCI-H23 lung"}, "OVCAR-5 ovarian": {"test_system": "OVCAR-5 ovarian"}, "MALME-3M melanoma": {"test_system": "MALME-3M melanoma"}, "SF-268 CNS": {"test_system": "SF-268 CNS"}, "MDA-N": {"test_system": "MDA-N"}, "SW-620 colon": {"test_system": "SW-620 colon"}, "RPMI-8226 leukemia": {"test_system": "RPMI-8226 leukemia"}, "T-47D breast": {"test_system": "T-47D breast"}, "M14 melanoma": {"test_system": "M14 melanoma"}, "SF-295 CNS": {"test_system": "SF-295 CNS"}, "UACC-62 melanoma": {"test_system": "UACC-62 melanoma"}, "HS 578T breast": {"test_system": "HS 578T breast"}, "EKVX NSCLC": {"test_system": "EKVX NSCLC"}, "SK-MEL-2 melanoma": {"test_system": "SK-MEL-2 melanoma"}, "SK-OV-3 ovarian": {"test_system": "SK-OV-3 ovarian"}, "PC-3 prostate": {"test_system": "PC-3 prostate"}, "HCC-2998 colon": {"test_system": "HCC-2998 colon"}, "HT29 colon": {"test_system": "HT29 colon"}, "UO-31 renal": {"test_system": "UO-31 renal"}, "HCT-15 colon": {"test_system": "HCT-15 colon"}, "SR leukemia": {"test_system": "SR leukemia"}, "SF-539 CNS": {"test_system": "SF-539 CNS"}, "IGROV1 ovarian": {"test_system": "IGROV1 ovarian"}, "KM12 colon": {"test_system": "KM12 colon"}, "HL-60(TB) leukemia": {"test_system": "HL-60(TB) leukemia"}, "SNB-75 CNS": {"test_system": "SNB-75 CNS"}, "786-0 renal": {"test_system": "786-0 renal"}, "MDA-MB-231 breast": {"test_system": "MDA-MB-231 breast"}, "LOX IMVI melanoma": {"test_system": "LOX IMVI melanoma"}, "NCI-H226 lung": {"test_system": "NCI-H226 lung"}, "OVCAR-3 ovarian": {"test_system": "OVCAR-3 ovarian"}, "SK-MEL-28 melanoma": {"test_system": "SK-MEL-28 melanoma"}, "SK-MEL-5 melanoma": {"test_system": "SK-MEL-5 melanoma"}, "CAKI-1 renal": {"test_system": "CAKI-1 renal"}, "A549 NSCLC": {"test_system": "A549 NSCLC"}, "COLO 205 colon": {"test_system": "COLO 205 colon"}, "HOP-92 NSCLC": {"test_system": "HOP-92 NSCLC"}, "ACHN renal": {"test_system": "ACHN renal"}, "RXF 393 renal": {"test_system": "RXF 393 renal"}, "U251 CNS": {"test_system": "U251 CNS"}, "MDA-MB-435": {"test_system": "MDA-MB-435"}, "K-562 leukemia": {"test_system": "K-562 leukemia"}, "SN12C renal": {"test_system": "SN12C renal"}, "UACC-257 melanoma": {"test_system": "UACC-257 melanoma"}, "MCF7 breast": {"test_system": "MCF7 breast"}, "HOP-62 NSCLC": {"test_system": "HOP-62 NSCLC"}, "SNB-19 CNS": {"test_system": "SNB-19 CNS"}, "TK-10 renal": {"test_system": "TK-10 renal"}, "NCI/ADR-RES ovarian": {"test_system": "NCI/ADR-RES ovarian"}, "OVCAR-4 ovarian": {"test_system": "OVCAR-4 ovarian"}, "HCT-116 colon": {"test_system": "HCT-116 colon"}, "BT-549 breast": {"test_system": "BT-549 breast"}, "NCI-H522 lung": {"test_system": "NCI-H522 lung"}, "CCRF-CEM leukemia": {"test_system": "CCRF-CEM leukemia"}, "DU-145 prostate": {"test_system": "DU-145 prostate"}, "OVCAR-8 ovarian": {"test_system": "OVCAR-8 ovarian"}, "MOLT-4 leukemia": {"test_system": "MOLT-4 leukemia"}, "A498 renal": {"test_system": "A498 renal"}},
  "note": "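Interpolation was linear, between the two tested concentrations surrounding the appropriate level; five concentrations were tested over 48 hours in 96-well plates. At the TGI there is no net growth.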",
  "data": [
    {"compound": "Nc1cc2c3c(c1)Oc1cc(N)cc4c1C3c1c(cc(N)cc1O4)O2", "values": [
      {"measurement": "TGI", "setting": "NCI-H460 lung", "value": "> 100", "unit": "µM"},
      {"measurement": "TGI", "setting": "NCI-H23 lung", "value": "> 66.5", "unit": "µM"},
      {"measurement": "TGI", "setting": "OVCAR-5 ovarian", "value": "> 100", "unit": "µM"},
      {"measurement": "TGI", "setting": "MALME-3M melanoma", "value": 22.8, "unit": "µM"},
      {"measurement": "TGI", "setting": "SF-268 CNS", "value": 25, "unit": "µM"},
      {"measurement": "TGI", "setting": "MDA-N", "value": 59.5, "unit": "µM"},
      {"measurement": "TGI", "setting": "SW-620 colon", "value": "> 100", "unit": "µM"},
      {"measurement": "TGI", "setting": "RPMI-8226 leukemia", "value": 52.2, "unit": "µM"},
      {"measurement": "TGI", "setting": "T-47D breast", "value": "> 93.2", "unit": "µM"},
      {"measurement": "TGI", "setting": "M14 melanoma", "value": "> 100", "unit": "µM"},
      {"measurement": "TGI", "setting": "SF-295 CNS", "value": "> 96.6", "unit": "µM"},
      {"measurement": "TGI", "setting": "UACC-62 melanoma", "value": "> 69.6", "unit": "µM"},
      {"measurement": "TGI", "setting": "HS 578T breast", "value": "> 100", "unit": "µM"},
      {"measurement": "TGI", "setting": "EKVX NSCLC", "value": "> 47.7", "unit": "µM"},
      {"measurement": "TGI", "setting": "SK-MEL-2 melanoma", "value": "> 81.9", "unit": "µM"},
      {"measurement": "TGI", "setting": "SK-OV-3 ovarian", "value": "> 100", "unit": "µM"},
      {"measurement": "TGI", "setting": "PC-3 prostate", "value": 98.3, "unit": "µM"},
      {"measurement": "TGI", "setting": "HCC-2998 colon", "value": "> 100", "unit": "µM"},
      {"measurement": "TGI", "setting": "HT29 colon", "value": "> 63.1", "unit": "µM"},
      {"measurement": "TGI", "setting": "UO-31 renal", "value": "> 100", "unit": "µM"},
      {"measurement": "TGI", "setting": "HCT-15 colon", "value": "> 31.6", "unit": "µM"},
      {"measurement": "TGI", "setting": "SR leukemia", "value": 50, "unit": "µM"},
      {"measurement": "TGI", "setting": "SF-539 CNS", "value": 46.2, "unit": "µM"},
      {"measurement": "TGI", "setting": "IGROV1 ovarian", "value": "> 44.9", "unit": "µM"},
      {"measurement": "TGI", "setting": "KM12 colon", "value": "> 84.2", "unit": "µM"},
      {"measurement": "TGI", "setting": "HL-60(TB) leukemia", "value": 52.6, "unit": "µM"},
      {"measurement": "TGI", "setting": "SNB-75 CNS", "value": "> 48.8", "unit": "µM"},
      {"measurement": "TGI", "setting": "786-0 renal", "value": "> 86.5", "unit": "µM"},
      {"measurement": "TGI", "setting": "MDA-MB-231 breast", "value": 53.8, "unit": "µM"},
      {"measurement": "TGI", "setting": "LOX IMVI melanoma", "value": 41.6, "unit": "µM"},
      {"measurement": "TGI", "setting": "NCI-H226 lung", "value": 12.8, "unit": "µM"},
      {"measurement": "TGI", "setting": "OVCAR-3 ovarian", "value": 51.6, "unit": "µM"},
      {"measurement": "TGI", "setting": "SK-MEL-28 melanoma", "value": "> 100", "unit": "µM"},
      {"measurement": "TGI", "setting": "SK-MEL-5 melanoma", "value": 27.3, "unit": "µM"},
      {"measurement": "TGI", "setting": "CAKI-1 renal", "value": 36.1, "unit": "µM"},
      {"measurement": "TGI", "setting": "A549 NSCLC", "value": "> 100", "unit": "µM"},
      {"measurement": "TGI", "setting": "COLO 205 colon", "value": 34.3, "unit": "µM"},
      {"measurement": "TGI", "setting": "HOP-92 NSCLC", "value": "> 100", "unit": "µM"},
      {"measurement": "TGI", "setting": "ACHN renal", "value": "> 51.3", "unit": "µM"},
      {"measurement": "TGI", "setting": "RXF 393 renal", "value": 29, "unit": "µM"},
      {"measurement": "TGI", "setting": "U251 CNS", "value": "> 100", "unit": "µM"},
      {"measurement": "TGI", "setting": "MDA-MB-435", "value": "> 86.9", "unit": "µM"},
      {"measurement": "TGI", "setting": "K-562 leukemia", "value": "> 100", "unit": "µM"},
      {"measurement": "TGI", "setting": "SN12C renal", "value": 49.2, "unit": "µM"},
      {"measurement": "TGI", "setting": "UACC-257 melanoma", "value": "> 85.1", "unit": "µM"},
      {"measurement": "TGI", "setting": "MCF7 breast", "value": "> 60", "unit": "µM"},
      {"measurement": "TGI", "setting": "HOP-62 NSCLC", "value": "> 88.1", "unit": "µM"},
      {"measurement": "TGI", "setting": "SNB-19 CNS", "value": "> 100", "unit": "µM"},
      {"measurement": "TGI", "setting": "TK-10 renal", "value": "> 100", "unit": "µM"},
      {"measurement": "TGI", "setting": "NCI/ADR-RES ovarian", "value": 26.9, "unit": "µM"},
      {"measurement": "TGI", "setting": "OVCAR-4 ovarian", "value": "> 100", "unit": "µM"},
      {"measurement": "TGI", "setting": "HCT-116 colon", "value": 75.5, "unit": "µM"},
      {"measurement": "TGI", "setting": "BT-549 breast", "value": 51.3, "unit": "µM"},
      {"measurement": "TGI", "setting": "NCI-H522 lung", "value": 45.5, "unit": "µM"},
      {"measurement": "TGI", "setting": "CCRF-CEM leukemia", "value": 81.5, "unit": "µM"},
      {"measurement": "TGI", "setting": "DU-145 prostate", "value": 46.7, "unit": "µM"},
      {"measurement": "TGI", "setting": "OVCAR-8 ovarian", "value": 34, "unit": "µM"},
      {"measurement": "TGI", "setting": "MOLT-4 leukemia", "value": "> 100", "unit": "µM"},
      {"measurement": "TGI", "setting": "A498 renal", "value": "> 100", "unit": "µM"}
    ]}
  ]
}
